Test results from the NIST ThermoML archive (doi:10.1016/j.tca.2015.09.008).
Several values for one entry are separate records, joined by “and”; a condition that tells them apart may be missing. Equal values may be shown once. Numbers after ± are expanded uncertainties.

Conditions: Crystal, Calculated from knudsen effusion weight loss

[I][La]([I])[I] [lanthanum triiodide]
Conditions | vapor or sublimation pressure
827 K | 4.7e-07 ± 3.5e-07 kPa
845 K | 1.1e-06 ± 6e-07 kPa
862 K | 2.5e-06 ± 1.2e-06 kPa
869 K | 3.5e-06 ± 1.5e-06 kPa
875 K | 4.7e-06 ± 3.5e-06 kPa
884 K | 7.1e-06 ± 3.9e-06 kPa
905 K | 1.7e-05 ± 7e-06 kPa
910 K | 2.2e-05 ± 7e-06 kPa and 8.9e-06 ± 6.2e-06 kPa
921 K | 1.6e-05 ± 1.7e-05 kPa and 3.4e-05 ± 1.7e-05 kPa
937 K | 6.5e-05 ± 2.8e-05 kPa and 4e-05 ± 2.7e-05 kPa
943 K | 8.1e-05 ± 3.4e-05 kPa and 5.4e-05 ± 3.3e-05 kPa
953 K | 0.00012 ± 6.2e-05 kPa and 9.1e-05 ± 6.3e-05 kPa
962 K | 0.00017 ± 6.7e-05 kPa and 0.00014 ± 6.6e-05 kPa
978 K | 0.00031 ± 9.3e-05 kPa and 0.00033 ± 0.00011 kPa
